Assay results from patent US11753446B2, “Beta-hairpin peptidomimetics” (POLYPHOR AG, priority 2014, dated 2023).
Where two headings read alike, the source gives them in different places. Where a SMILES comes first, the peptide text is derived from it. [ ]: non-standard residue; d: D form. Tle = CC(C)(C)[C@H](N)C(=O)O; dDab = NCC[C@@H](N)C(=O)O; Orn = NCCC[C@H](N)C(=O)O; Dab = NCC[C@H](N)C(=O)O; Dap = NC[C@H](N)C(=O)O

What was measured:
[1] = tested on: Acinetobacter baumannii DSM 30008; type: cell-based
Method in brief: (§1)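 Peptide activity was tested by NCCLS broth microdilution with slight modifications. Bacteria were diluted in cation-adjusted Mueller-Hinton II broth to approximately 10^6 CFU/mL against a 0.5 McFarland standard. They were then exposed to two-fold serial peptide dilutions in broth containing 0.002% final polysorbate 80.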

[2] = tested on: Escherichia coli ATCC 25922; type: cell-based
Method in brief: as §1

[3] = tested on: Klebsiella pneumoniae ATCC 13883; type: cell-based
Method in brief: as §1

[4] = tested on: human red blood cells (hRBC); assay: Hemolysis: hemolytic activity at 100 μg/mL, 1 h at 37° C.
Method in brief: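 Peptides at 100 μg/mL incubated with washed 20% (v/v) human erythrocytes (~0.9×10^9 cells/mL) for 1 h at 37 °C with shaking. Released hemoglobin read at OD 540 nm in supernatant; 0% and 100% lysis from PBS/0.001% acetic acid and 2.5% Triton X-100.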

[5] = Mueller-Hinton II broth, 18-20 hours at 35° C.

Structure (SMILES)	Acinetobacter baumannii DSM 30008 MIC [1, 5] [µg/mL]	Escherichia coli ATCC 25922 MIC [2, 5] [µg/mL]	Klebsiella pneumoniae ATCC 13883 MIC [3, 5] [µg/mL]	Hemolysis at 100 μg/mL ([4]; 100 μg/mL, 20% hRBC, 1 h at 37° C.) [%]	Acinetobacter baumannii DSM 30008 MIC ([1]; DSM 30008) [µg/mL]	Escherichia coli ATCC 25922 MIC ([2]; ATCC 25922) [µg/mL]	Klebsiella pneumoniae ATCC 13883 MIC ([3]; ATCC 13883) [µg/mL]	Hemolysis at 100 μg/mL ([4]; red cells of human, 1 h, 100) [%]
CC(C)C[C@@H]1NC(=O)[C@H](CCCCN)NC(=O)[C@@H](CCN)NC(=O)[C@H](C(C)C)NC(=O)[C@@H]2CSSC[C@H](NC1=O)C(=O)N[C@@H](Cc1ccc(O)cc1)C(=O)N[C@@H](CC(N)=O)C(=O)N[C@@H](CCCN)C(=O)N[C@H](CCN)C(=O)N[C@@H](CCN)C(=O)N[C@@H](Cc1c[nH]c3ccccc13)C(=O)N[C@@H](CO)C(=O)N[C@@H](Cc1ccc(O)cc1)C(=O)N2 [Example 67, cyclo(-Leu-Cys-Tyr-Asn-Orn-^DDab-Dab-Trp-Ser-Tyr-Cys-Val-^DDab-Lys-)] (HELM PEPTIDE1{C.V.[NCC[C@@H](N[*:1])C(=O)[*:2]].K.L.C.Y.N.[Orn].[NCC[C@@H](N[*:1])C(=O)[*:2]].[Dab].W.S.Y}$PEPTIDE1,PEPTIDE1,1:R3-6:R3|PEPTIDE1,PEPTIDE1,1:R1-14:R2$$$V2.0)	1.5	1	1	1	–	–	–	–
CC(C)C[C@@H]1NC(=O)[C@H](CCCNC(=N)N)NC(=O)[C@@H](CCN)NC(=O)[C@H](C(C)C)NC(=O)[C@@H]2CSSC[C@H](NC1=O)C(=O)N[C@@H](Cc1ccc(O)cc1)C(=O)N[C@@H](CC(N)=O)C(=O)N[C@@H](CCCN)C(=O)N[C@H](CCN)C(=O)N[C@@H](CCN)C(=O)N[C@@H](Cc1c[nH]c3ccccc13)C(=O)N[C@@H](CC(N)=O)C(=O)N[C@@H](Cc1ccc(O)cc1)C(=O)N2 [Example 53, cyclo(-Leu-Cys-Tyr-Asn-Orn-^DDab-Dab-Trp-Asn-Tyr-Cys-Val-^DDab-Arg-)] (HELM PEPTIDE1{C.V.[NCC[C@@H](N[*:1])C(=O)[*:2]].R.L.C.Y.N.[Orn].[NCC[C@@H](N[*:1])C(=O)[*:2]].[Dab].W.N.Y}$PEPTIDE1,PEPTIDE1,1:R3-6:R3|PEPTIDE1,PEPTIDE1,1:R1-14:R2$$$V2.0)	–	–	–	–	1.5	1	1	1
CC(C)C[C@@H]1NC(=O)[C@H](CCCNC(=N)N)NC(=O)[C@@H](CCN)NC(=O)[C@H](C(C)C)NC(=O)[C@@H]2CSSC[C@H](NC1=O)C(=O)N[C@@H](Cc1ccc(O)cc1)C(=O)N[C@@H](CC(N)=O)C(=O)N[C@@H](CCN)C(=O)N[C@H](CCN)C(=O)N[C@@H](CCN)C(=O)N[C@@H](Cc1c[nH]c3ccccc13)C(=O)N[C@@H](CO)C(=O)N[C@@H](Cc1ccc(O)cc1)C(=O)N2 [Example 56, cyclo(-Leu-Cys-Tyr-Asn-Dab-^DDab-Dab-Trp-Ser-Tyr-Cys-Val-^DDab-Arg-)] (HELM PEPTIDE1{C.V.[NCC[C@@H](N[*:1])C(=O)[*:2]].R.L.C.Y.N.[Dab].[NCC[C@@H](N[*:1])C(=O)[*:2]].[Dab].W.S.Y}$PEPTIDE1,PEPTIDE1,1:R3-6:R3|PEPTIDE1,PEPTIDE1,1:R1-14:R2$$$V2.0)	–	–	–	–	0.625	1	1	1
C[C@@H]1NC(=O)[C@H](C(C)(C)C)NC(=O)[C@H](CCN)NC(=O)[C@H](Cc2c[nH]c3ccccc23)NC(=O)[C@H](CCN)NC(=O)[C@@H](CCN)NC(=O)[C@H](CCCN)NC(=O)[C@H](CCN)NC(=O)[C@H](Cc2ccc(O)cc2)NC(=O)[C@H](CN)NC(=O)[C@H](Cc2ccccc2)NC(=O)[C@@H]2CCCN2C(=O)[C@@H](CCN)NC(=O)[C@H](CO)NC1=O [Example 50, cyclo(-Phe-Dap-Tyr-Dab-Orn-^DDab-Dab-Trp-Dab-tBuGly-Ala-Ser-^DDab-Pro-)] (cyclo(AS[dDab]PF[Dap]Y[Dab][Orn][dDab][Dab]W[Dab][Tle]))	–	–	–	–	2	1	0.5	11
